Consider two molecules from PMC9646673, “A Novel, Orally Bioavailable, Small-Molecule Inhibitor of PCSK9 With Significant Cholesterol-Lowering Properties In Vivo” (Journal of Lipid Research, 2022).

Data set [1] relates to hepatic LDLR protein. The data set can be described thus: Second efficacy study: hepatic LDLR protein (Western blotting). Format: in vivo, mouse. The conditions noted are these: day 35; NYX-PCSK9i 50 mg/kg BID PO, atorvastatin […].
Data set [2] deals with APOE∗3-Leiden.CETP mice. Nature of the data set: Second efficacy study: body weight, food intake, plasma ALT and AST. Format: in vivo, mouse. Also noted: Body weight (mean ± SD) / Food intake (mean ± SD): unit not given here. Particulars: NYX-PCSK9i 50 mg/kg BID PO, atorvastatin […]. From the text:
Animal experiments were approved by the governmental central committee on animal experiments (AVD5010020172064) and TNO’s animal welfare body (TNO-471 and TNO-482). Female APOE∗3-Leiden.CETP transgenic mice (11–16 weeks of age) were bred at the animal facility of TNO-InnoSer (Leiden, The Netherlands). Female animals were used in this study as they are more responsive to dietary cholesterol and fat than males and therefore typically develop atherosclerosis more rapidly than male APOE∗3-Leiden and APOE∗3-Leiden.CETP mice on cholesterol-containing diets ([33], [34]). Although measurements of atherosclerosis were not included as part of the present study, females were used with the prospect in mind that atherosclerosis studies will follow. The mice were housed under standard conditions that included 12 h light-dark cycles and access to a WTD and sterilized tap water ad libitum. Body weight, food intake, and clinical signs of behavior were monitored throughout the studies. […] Time t = 0 (weeks) was designated as the time at which mice were matched into groups after the 3-week run-in period in each efficacy study.
In both studies, blood samples were collected at weekly intervals via tail vein sampling after fasting the mice for 4 h. Blood samples were centrifugated (4500 g at 4°C), and the plasma was collected for the following analyses. Total plasma cholesterol levels were determined using a Cholesterol CHOD-PAP kit according to the manufacturer’s instructions. Plasma HDL-C levels were determined by first precipitating apoB-containing lipids using PEG 6000/glycine and then utilizing the Cholesterol CHOD-PAP kit ([35]). Non-HDL-C levels were determined by subtracting HDL-C levels from total cholesterol levels ([32]). Group-pooled lipoprotein profiles were determined by FPLC analysis using an AKTApurifier 10 FPLC system (GE Healthcare, Chicago, IL). Plasma PCSK9 levels were determined using a Mouse PCSK9 Quantikine ELISA kit as per the manufacturer’s protocol. ALT and AST levels of group-pooled samples were measured using the Roche Reflotron Plus System (Mannheim, Germany).

In data set [3] the test system is APOE∗3-Leiden.CETP mice. Particulars: cited from earlier work.

On to `CC(C)c1c(C(=O)Nc2ccccc2)c(-c2ccccc2)c(-c2ccc(F)cc2)n1CC[C@@H](O)C[C@@H](O)CC(=O)O` [atorvastatin, reference compound], for which the “increase in hepatic LDLR protein expression” value in data set [1] is recorded as “no significant effect”. In addition, the “Body weight (mean ± SD)” value in data set [2] (day 0 (baseline)) is 21.7 ± 0.8; in data set [2] (day 28), 21.8 ± 1.2. The “Food intake (mean ± SD)” value was 3.4 ± 0.3 in data set [2] (day 0 (baseline)); 2.5 ± 0.1 in data set [2] (day 7); 2.5 ± 0.2 in data set [2] (day 14); 2.3 ± 0.0 in data set [2] (day 21); 2.3 ± 0.1 in data set [2] (day 28); 2.5 ± 0.1 in data set [2] (day 35).

As to “alirocumab: a monoclonal antibody against PCSK9”, the “hepatic cholesteryl ester content, fecal bile acid content and fecal neutral sterol levels” value in data set [3] is reported as “affected none of these parameters”.
